Literature values in US20180243207A1, “DUAL-RELEASE FLEXIBLE F[…] IN […] HOSPICE CARES OF ELDERLY PATIENTS” (priority 2017, published 2018).

How the values were obtained:
[1] = target: T1, α3-GABAA receptors (Homo sapiens, UniProt P18507+P34903)
T1 sequence (P34903 29-492): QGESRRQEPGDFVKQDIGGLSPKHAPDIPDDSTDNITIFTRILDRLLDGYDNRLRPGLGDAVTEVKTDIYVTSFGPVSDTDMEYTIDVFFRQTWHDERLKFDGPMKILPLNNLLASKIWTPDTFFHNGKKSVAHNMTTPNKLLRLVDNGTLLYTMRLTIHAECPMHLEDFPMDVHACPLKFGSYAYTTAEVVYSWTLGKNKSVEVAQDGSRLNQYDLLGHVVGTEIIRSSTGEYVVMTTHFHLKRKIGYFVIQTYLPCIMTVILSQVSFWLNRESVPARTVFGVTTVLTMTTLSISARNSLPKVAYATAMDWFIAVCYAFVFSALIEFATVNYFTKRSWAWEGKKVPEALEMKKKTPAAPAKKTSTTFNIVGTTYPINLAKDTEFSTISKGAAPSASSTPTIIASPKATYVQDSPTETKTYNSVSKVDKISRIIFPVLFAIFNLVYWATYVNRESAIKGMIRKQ
T1 sequence (P18507 40-467 limits assumed): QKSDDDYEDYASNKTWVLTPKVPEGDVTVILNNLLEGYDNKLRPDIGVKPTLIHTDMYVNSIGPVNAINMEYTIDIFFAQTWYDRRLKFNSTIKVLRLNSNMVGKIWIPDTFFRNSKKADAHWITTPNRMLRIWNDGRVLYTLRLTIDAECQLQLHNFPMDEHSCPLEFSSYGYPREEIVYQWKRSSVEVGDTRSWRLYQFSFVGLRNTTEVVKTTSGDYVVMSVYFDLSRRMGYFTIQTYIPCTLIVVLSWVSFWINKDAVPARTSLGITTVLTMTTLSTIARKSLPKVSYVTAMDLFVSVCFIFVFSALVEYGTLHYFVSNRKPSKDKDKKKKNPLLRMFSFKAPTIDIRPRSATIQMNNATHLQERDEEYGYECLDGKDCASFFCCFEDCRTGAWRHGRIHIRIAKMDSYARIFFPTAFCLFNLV
T1 sequence (P28472 26-473 partner): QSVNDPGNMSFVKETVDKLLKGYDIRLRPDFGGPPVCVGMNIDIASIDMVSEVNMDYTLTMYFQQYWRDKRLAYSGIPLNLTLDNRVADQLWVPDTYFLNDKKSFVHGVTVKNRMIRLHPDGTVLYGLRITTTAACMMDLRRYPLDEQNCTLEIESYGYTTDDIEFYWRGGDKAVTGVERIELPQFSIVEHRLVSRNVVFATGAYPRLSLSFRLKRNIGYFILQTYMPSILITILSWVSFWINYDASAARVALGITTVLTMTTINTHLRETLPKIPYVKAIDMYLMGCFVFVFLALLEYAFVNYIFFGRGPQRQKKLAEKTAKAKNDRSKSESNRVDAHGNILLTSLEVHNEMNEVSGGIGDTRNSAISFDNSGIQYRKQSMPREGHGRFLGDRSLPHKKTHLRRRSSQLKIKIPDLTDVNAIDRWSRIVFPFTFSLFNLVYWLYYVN

[2] = target: T2, α2-GABAA receptors (Homo sapiens, UniProt P18507+P47869)
T2 sequence (P47869 29-451): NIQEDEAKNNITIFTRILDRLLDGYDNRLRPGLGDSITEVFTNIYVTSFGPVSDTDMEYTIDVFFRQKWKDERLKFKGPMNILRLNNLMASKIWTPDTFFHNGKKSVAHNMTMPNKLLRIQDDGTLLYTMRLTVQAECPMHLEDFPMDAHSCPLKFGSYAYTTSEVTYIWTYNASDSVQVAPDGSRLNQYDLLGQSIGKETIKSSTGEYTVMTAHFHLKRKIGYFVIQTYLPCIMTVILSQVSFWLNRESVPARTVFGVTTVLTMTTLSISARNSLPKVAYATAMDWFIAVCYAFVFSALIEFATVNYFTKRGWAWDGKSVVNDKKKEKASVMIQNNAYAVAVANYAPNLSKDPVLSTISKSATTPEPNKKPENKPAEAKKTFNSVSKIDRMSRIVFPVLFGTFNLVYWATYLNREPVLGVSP
T2 sequence (P18507 40-467 limits assumed): T1 sequence (P18507 40-467 limits assumed)
T2 sequence (P28472 26-473 partner): T1 sequence (P28472 26-473 partner)

O=C1Nc2ccc(Cl)cc2C(c2ccccc2Cl)=NC1O (centres unmarked) [Lorazepam]
affinity to α3-GABAA receptors [1]: high | affinity to α2-GABAA receptors [2]: intermediate
